Reference: publication PMC12041767 (Journal of immunology (Baltimore, Md. : 1950), 2025)

Assays:
HLA-E*01:03 = HLA-E*01:03 (Homo sapiens, UniProt P13747); assay type: binding; settings: S/P relative to positive control […] or […], tested at least two times, median, Figure 1
NKG2A/CD94 = NKG2A/CD94 (Homo sapiens, UniProt P26715+Q13241); assay type: binding
Sequence of NKG2A/CD94 (P26715 whole entry): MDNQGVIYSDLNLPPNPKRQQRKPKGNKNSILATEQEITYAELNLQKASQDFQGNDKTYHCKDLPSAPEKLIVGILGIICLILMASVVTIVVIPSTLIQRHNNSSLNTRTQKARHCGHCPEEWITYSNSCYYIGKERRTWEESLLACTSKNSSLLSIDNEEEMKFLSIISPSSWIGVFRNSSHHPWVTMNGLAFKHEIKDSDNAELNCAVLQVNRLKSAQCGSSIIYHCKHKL
Sequence of NKG2A/CD94 (Q13241 whole entry): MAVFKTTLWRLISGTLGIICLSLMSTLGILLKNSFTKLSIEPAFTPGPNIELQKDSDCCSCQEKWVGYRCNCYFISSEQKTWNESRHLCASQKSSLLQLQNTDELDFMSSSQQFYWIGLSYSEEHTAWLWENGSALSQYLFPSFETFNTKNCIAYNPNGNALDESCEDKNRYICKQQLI

Row | Sequence | Peptide binding affinity for HLA-E*01:03 (signal to positive, S/P, ratio), in words (HLA-E*01:03) | Interaction of thermal exchanged HLA-E TM/peptide complex with NKG2A/CD94, in words (NKG2A/CD94)
1 | VMAPRTLVL [Mtb55-VL9-hybrid] | increased the affinity | could interact
2 | VMTPRTLTL [Mtb34-VL9-hybrid] | increased the affinity | 
